Laboratory results: patent publication US10501741B2, “Methods and compositions for inhibiting growth and epithelial to mesenchymal transition (EMT) in cancer cells” (Cold Spring Harbor Laboratory, priority 2014, dated 2019)
“Also recorded” adds a separate entry of the source.

Legend:
[1] = system: cells ectopically expressing p53Ψ (A549, MCF7, H1299); experiment: EMT induction by p53Ψ upon modulation of CypD; type: cell-based, human
Protocol: (§1) To determine whether CypD and ROS have a causative role in EMT mediated by p53Ψ, CypD and ROS levels were modulated in cells ectopically expressing p53Ψ (A549, MCF7, H1299) and their effects on expression of EMT markers and cell invasion were assessed.

[2] = system: A549 cells expressing p53Ψ; experiment: epistasis experiment: CypD silencing and NAC, E-cadherin Western blot; type: cell-based, human
Protocol: (§2) Data shown represent relative expression compared to ectopic expression of a vector control (mean±SD, n=6; p<0.0001, Student's t-test). […] Cells were also treated with 10 mM NAC for 5 days. The cell extracts were probed for E-cadherin, p53, CypD, and as a control GAPDH. […] Cells were treated with 10 mM NAC or 500 μM Tempol for 5 days, then extracts were probed for E-cadherin, p53 and GAPDH as indicated. […] Cells were grown in the presence or absence of NAC (10 mM). After 5 days, the invasive potential of cells was determined using a standard Matrigel invasion assay. Filter chambers were coated with 40 μl Matrigel and invasion was assessed after 30 hours.
To exclude the possibility that ROS-induced EMT was independent of CypD in p53Ψ-expressing cells, epistasis experiments were performed. Specifically, E-cadherin expression was measured upon manipulation of ROS levels (e.g. by NAC treatment) in cells ectopically expressing p53Ψ in the presence and absence of CypD (FIG. 13B). If CypD and p53Ψ act on parallel pathways, an additive effect of CypD silencing and ROS inhibition would be predicted. In contrast, if p53Ψ acts solely through CypD, then CypD silencing would be sufficient to reduce ROS levels and no additive effect would be observed. […] This in turn is necessary and sufficient for p53Ψ-induced EMT (FIG. 7F, right panel).

[3] = system: mitochondrial permeability transition pore (mPTP) in A549 cells expressing p53Ψ; experiment: calcein AM assay of mPTP permeability; type: cell-based, human; conditions: ionomycin 50 nM, control; all experimental settings
Description: In this assay, cells are loaded with Calcein (acetomethylester) together with its quencher Cobalt ions. Calcein freely diffuses throughout the cell including into the mitochondrial matrix. But the Cobalt quencher cannot diffuse across the inner mitochondrial membrane, therefore quenching Calcein fluorescence everywhere except in the mitochondrial matrix. Thus, Calcein fluorescence comes only from the matrix. Only upon PTP opening will Cobalt ions gain access to the matrix and quench Calcein, resulting in a sharp drop of mitochondrial fluorescence, which can be measured by FACS or microscopy (FIG. 6B).

HOP62 cells = experiment: p53Ψ silencing in HOP62 cells (morphology, qRT-PCR of EMT markers); type: cell-based, human
Description: Representative micrographs are presented showing cells 4 days after transfection with a mixture of two independent siRNA oligonucleotides targeting p53. […] No difference in Snail expression was observed. Data shown represent relative expression levels compared to actin (mean±SD, n=6; p<0.0001, Student's t-test) as measured by SYBR-green-based real-time RT-PCR. […] Level of expression of p53FL and p53Ψ in MCF7 are provided in FIGS. 11B and 10E, respectively. FIG. 4D presents qRT-PCR analysis of the canonical EMT markers E-cadherin (ECAD) and vimentin (VIM) as well as the EMT master regulators Snail, Slug, Twist, and Zeb1, in H1299 cells ectopically expressing p53Ψ or p53FL. Data shown represent relative expression levels compared to actin (mean±SD, n=6; p<0.0001, Student's t-test) as measured by SYBR-green-based real-time RT-PCR. FIG. 4E depicts the percent wound closure at the indicated time points in a 2D monolayer of A549 cells expressing p53Ψ, p53FL, or vector control. […] Filter chambers were coated with 40 μl Matrigel, and invasion was assessed after 30 hours. TGF-β treated cells were used as a positive control.
Somatic alterations of the p53 tumor suppressor gene located on chromosome 17p often occur in cancers and are associated with poor prognosis. In these tumors, p53 mutations disable p53-mediated inhibition of proliferation and promotion of apoptosis in response to stress. In addition, missense p53 mutations may have gain-of-function activities that lead to an increased metastatic spread. […] To test this hypothesis p53Ψ expression was silenced in HOP62 cells. These mesenchymal cells are homozygous for the c.673−2A to G mutation and inherently express exclusively a p53Ψ-like isoform (FIG. 2I and FIG. 9O). […] Cells in which p53Ψ expression was silenced lost the elongated appearance typical of mesenchymal-like cells and instead acquired a cobblestone morphology characteristic of epithelial cells (FIG. 4A).

E-cadherin = E-cadherin mRNA upon H2O2 treatment (SYBR-green real-time RT-PCR); type: cell-based
Protocol: (§3) FIG. 7A presents Western blot analysis of A549 cells ectopically expressing p53Ψ upon transfection with two independent siRNA targeting cyclophilin D (CypD). […] Data represent expression levels compared to actin (mean±SD, n=6; p<0.0001, Student's t-test) as measured by SYBR-green-based real-time RT-PCR. […] Cell motility was measured in a standard wound healing experiment. […] Each bar represents the average of four individual wounds. […] Data represent relative expression compared to the vector control (mean±SD, n=6; p<0.0001, Student's t-test). […] Cells were treated for 5 days with 10 mM NAC. FIG. 7F presents a schematic of a proposed mechanism of the p53Ψ-induced EMT. Upon acute oxidative stress, p53FL was previously shown to interact with CypD and trigger necrotic cell death by opening mPTP pore (left panel).
as §1

[4] = system: A549 cells expressing p53Ψ; experiment: MitoSOX staining of mitochondrial superoxide; type: cell-based, human; conditions: MitoSOX 1 μM
Protocol: FIG. 6A presents Western blot analysis of mitochondrial fractions of A549 cells ectopically expressing p53Ψ. The fractions were immunoprecipitated with a CypD-specific antibody and probed with a p53 N-terminal antibody, or CypD and Smurf1 antibodies as controls. […] FIG. 6B depicts a schematic of the calcein AM assay. […] The fluorescence was detected by laser confocal microscopy after 15 minutes. Non-mitochondrial calcein fluorescence was quenched by co-treatment with CoCl2. Treatment with the ionophore ionomycin (50 nM) was used as a control. […] FIG. 6D presents the % decrease in calcein fluorescence upon quenching of cytosolic calcein with CoCl2 in three independent experiments. The median calcein fluorescence was assessed by FACS. Calcein was loaded at 10 nM and detected after 15 minutes at 515 nm upon excitation with Red HeNe at 495 nm. Treatment with ionomycin was used as a control to estimate basal fluorescence. FIG. 6E presents representative fluorescence microscopy images of A549 cells loaded with MitoSOX (1 μM). Images show the fluorescence upon excitation at 390 nm, mainly from the hydroxyethidium derivative. DAPI was used as a counterstain. FIG. 6F presents the quantification of the MitoSox-positive fractions in three independent FACS experiments from FIG. 6E. […]

[5] = system: H1299 cells ectopically expressing p53Ψ; experiment: qRT-PCR of EMT markers in H1299 cells; type: cell-based, human; conditions: 2 mM CsA for 5 days
[6] = system: MCF7 cells ectopically expressing p53Ψ; experiment: real-time PCR of EMT markers in MCF7 cells; type: cell-based, human; conditions: CsA 2 mM for 5 days
[7] = system: A549 cells ectopically expressing p53Ψ; experiment: wound healing (cell motility) assay; type: cell-based, human; conditions: 2 mM CsA for 5 days, closure at 48 hours
Protocol: as §3, §1

[8] = system: A549 cells ectopically expressing p53Ψ; experiment: E-cadherin expression with ROS scavengers; type: cell-based, human; conditions: 10 mM NAC or 500 μM Tempol for 5 days
Protocol: as §3
Data shown represent relative expression compared to ectopic expression of a vector control (mean±SD, n=6; p<0.0001, Student's t-test). […] After 5 days, the invasive potential of cells was determined using a standard Matrigel invasion assay. Filter chambers were coated with 40 μl Matrigel and invasion was assessed after 30 hours.
as §1

[9] = system: A549 cells ectopically expressing p53Ψ; experiment: Matrigel invasion assay; type: cell-based, human; conditions: NAC 10 mM, 5 days, invasion assessed after 30 hours
Protocol: as §2, §1

CypD siRNA: siRNA AGGCAGATGTCGTCCCAAA (SEQ ID NO:10); CGACTTCACCAACCACAAT (SEQ ID NO:11), from Invitrogen (listed as DNA, chemistry not given here)
EMT in cells expressing p53Ψ [1]: sufficient to prevent EMT
p53Ψ-induced EMT ([2]; CypD silenced): blocked p53Ψ-induced EMT

C[C@H](CCC(=O)O)C[C@H](C)C[C@H](C)C(=O)/C=C(\O)[C@H](C)C[C@H](C)C/C=C/[C@@H](C)[C@@H](O)[C@@H](C)[C@@H](O)C[C@@H]1CC[C@@](C)([C@H]2CC[C@@](C)([C@@H](C)O)O2)O1 [ionomycin]
mitochondria calcein fluorescence [3]: rapid loss of mitochondria calcein fluorescence

p53 siRNA: siRNA GGGTTAGTTTACAATCAGC (SEQ ID NO:5); GGTGAACCTTAGTACCTAA (SEQ ID NO:6), from Invitrogen (listed as DNA, chemistry not given here)
cell morphology (HOP62 cells; 4 days after transfection with two siRNA targeting p53): loss of mesenchymal-like features and the acquisition of an epithelial morphology
Snail expression (HOP62 cells; p53 siRNA): No difference
expression of E-cadherin (HOP62 cells; p53Ψ knockdown): increased expression of E-cadherin
expression of vimentin, Zeb1, Twist and Slug (HOP62 cells; p53Ψ knockdown): diminished expression

OO [H2O2]
cell viability (E-cadherin; low doses of H2O2): without compromising cell viability
expression of E-cadherin (E-cadherin; low doses of H2O2 for 5 days): decreased the expression of E-cadherin

cyclosporin A [CsA]
MitoSOX fluorescence (mitochondrial superoxide) [4]: decreased
EMT in cells expressing p53Ψ [1]: sufficient to prevent EMT
expression of E-cadherin (qRT-PCR) [5]: restore expression of E-cadherin to a level similar to that observed in control cells
expression of EMT markers (qRT-PCR) [5]: reduce expression of EMT markers
expression of E-cadherin (real-time PCR) [6]: restore expression of E-cadherin to levels similar to parental cells
expression of EMT markers (real-time PCR) [6]: reduce expression of EMT markers
cell motility (wound healing) [7]: diminish cell motility

CC(=O)N[C@@H](CS)C(=O)O [NAC, N-acetyl cysteine]
expression of E-cadherin [8]: augmented expression of E-cadherin
invasive capabilities (Matrigel invasion) [9]: decreased invasive capabilities; also recorded: sufficient to decrease the invasion capabilities
E-cadherin expression in cells in which CypD was silenced ([2]; CypD siRNA, 10 mM NAC for 5 days): did not increase E-cadherin expression

CC1(C)CC(O)CC(C)(C)N1[O] [Tempol]
expression of E-cadherin [8]: augmented expression of E-cadherin
invasive capabilities (Matrigel invasion) [9]: decreased invasive capabilities
